These results are taken from publication PMC12467382, “Synthesis and Bioevaluation of Chalcones as Broad-Spectrum Antiviral Compounds Against Single-Stranded RNA Viruses” (Biomolecules, 2025).

Where “and” joins values, the source holds several entries; their conditions need not be identical. Equal values may be shown once. Where only a bound is given, the exact number is not on record here.

One series deals with LACV. The series is described as follows: LACV Gc protein expression in Hs27 cells by flow cytometry. The conditions noted are these: MOI 10, 24 hpi; for Cells expressing LACV glycoprotein Gc: 10 µM before and after infection, DMSO ~60%. In kind it is cell-based, La Crosse Virus. How it is done:
La Crosse Virus (LACV) was kindly provided by Andrew Pekosz (Johns Hopkins Bloomberg School of Public Health, Baltimore, MD, USA), grown at 28 °C in C6/36 cells derived from the larvae of the Asian tiger mosquito (ATCC), and titered at 37 °C on Vero cells as previously described. Infections were carried out in DMEM containing 2% HI FBS for 1 h or mock infected with media alone. Cells were washed with PBS and cultured in DMEM containing 2% HI FBS.
(§1) For cytotoxicity assays, cells were stained with propidium iodide (PI) at a dilution of 1:100. Cell viability was determined via flow cytometry using the CytoFLEX (Beckman Coulter, Brea, CA, USA). CytExpert software (Beckman Coulter, version 2.4) was used to analyze independent events. PIV5 infection was monitored using flow cytometry via the FITC channel by analyzing GFP expression of individual cells. ZIKV infection was monitored utilizing Flavivirus group antigen–antibody (D1-4G2-4-15; Novus Biologicals, Littleton, CO, USA) staining for the ZIKV envelope protein. Cells were fixed and permeabilized using eBioscience Intracellular Fixation and Permeabilization Buffer (Invitrogen, Thermo Fisher Scientific, MA, USA) according to the manufacturer’s instructions. Secondary staining was performed using an anti-Alexa Fluor 488 (AF488) antibody (Invitrogen, Thermo Fisher Scientific, MA, USA). OC43 infection was monitored utilizing a primary antibody targeted toward the OC43 nucleocapsid protein (NP, MAB9013, Sigma-Aldrich, St. Louis, MO, USA). Secondary staining was performed using an AF488 antibody. Cells were fixed and permeabilized as previously described. LACV infection was monitored utilizing an anti-LACV Gc 807.31ab antibody kindly provided by Andrew Pekosv. Secondary staining was performed using an AF488 antibody. Cells were fixed and permeabilized as previously described.
To expand these findings, we evaluated whether these top-performing chalcones inhibited the replication of other RNA viruses. […]
(A flow cytometer gives signals particle by particle.)

A further series has as its system Hs27 cells. The series is described as follows: Propidium iodide (PI) staining cytotoxicity in Hs27 cells by flow cytometry. The class given is cell-based. The following applies: for PI MTC: 24 h, concentration giving 10% PI+ cells, Hs27 cells, standard curve; for PI+ cells: 10 µM, 24 h post-treatment, untreated control subtracted. The protocol: (§2) Chalcone treatments were performed in DMEM supplemented with 10% HI FBS at the indicated concentrations and for indicated periods of time. Chalcone stocks were reconstituted in 100% dimethyl sulfoxide (DMSO) at a concentration of 10 mM and were serially diluted to working concentrations in DMSO. DMSO control treatments to test the effect of the vehicle were performed at volumes corresponding to the volume of chalcone added during each experiment (i.e., 1 µL chalcone DMSO solution/1 mL DMEM [10 µM] utilized alongside the DMSO control of 1 µL/1 mL DMEM). For cytotoxicity assays, untreated controls were subtracted from DMSO and chalcone sample values to account for the background signal.
as §1
To determine the actual cytotoxic effects of select chalcones in the series, human fibroblast Hs27 cells were treated with DMSO as a control or treated with each selected chalcone at a concentration of 10 µM. At 24 h post-treatment (hpt), the Hs27 cells were stained with propidium iodide (PI), a stain for cells with permeable plasma membranes, and then processed for flow cytometry (see Figure 4). […] These cytotoxicity findings reflected the relative growth-inhibition properties of 8f, 8l, 8o, 8p, 8s, 8w, 8x, and 8z observed in Table 2 (see Hs27 cell data).
The GFP IC50 was defined as the concentration of chalcone required to inhibit the GFP expression (as measured via flow cytometry) by 50% when compared to DMSO-treated cells. […] To determine these PI MTCs, Hs27 cells were treated with each chalcone at various concentrations for 24 h and then analyzed via flow cytometry for positive PI staining. Untreated controls were subtracted to account for background staining. […] Immediately following infection, media were replaced with chalcone-supplemented media at specified concentrations. GFP expression was analyzed via flow cytometry at 24 hpi.

A further series has as its system PIV5-GFP. The series is described as follows: PIV5-GFP viral GFP expression in Hs27 cells by flow cytometry. The class given is cell-based, parainfluenza virus 5. The conditions noted are these: for Inhibition of GFP expression, pre-infection treatment only: 10 µM for 24 h before infection, media lacking chalcone after; for Ability to reduce viral GFP expression (Figure 4B screen): 10 µM chalcone before and after infection; for GFP-positive cells, chalcone added at 0 or 6 hpi: 10 µM added at 0 (or 6) hpi, DMSO ~80%; for Effect on number of GFP-positive cells, chalcone added at 18 hpi: 10 µM added at 18 hpi; for GFP-positive cells: 10 µM chalcone 24 h before infection and after, DMSO control ~80-82% GFP+; for % GFP relative to DMSO treated (10 µM): Hs27 cells infected with PIV5-GFP; for GFP-positive cells, virus spread, chalcone added at 0 and 24 hpi: 10 µM added at 0 and 24 hpi, DMSO nearly 60%; for Inhibition of virus spread, chalcone added at 48 and 72 hpi: 10 µM added at 48 and 72 hpi. How it is done: Parainfluenza virus 5 (PIV5) expressing green fluorescence protein (GFP) was derived from cDNA, grown at 37 °C in Madin–Darby bovine kidney (MDBK) cells and titered on CV-1 (African green monkey kidney) cells with a fibroblast morphology as previously described. MDBK and CV-1 cells were the kind gift of Dr. Robert Lamb (Northwestern University). Cells were infected with virus diluted in DMEM supplemented with 10% bovine serum albumin (BSA) for 1 h or mock infected with media alone. Following incubation, cells were washed with phosphate-buffered saline (PBS) and cultured in DMEM supplemented with 2% heat-inactivated (HI) FBS.
as §2, §1
To measure the effect of chalcone treatment on PIV5 virus growth, Hs27 cells were infected with PIV5-GFP. This engineered negative sense single-stranded RNA virus expresses GFP, which serves as a genome-encoded protein readout. After entering a cell, PIV5 must first undergo primary transcription to convert its genome into mRNA. As genome replication begins, nascent genomes then become templates for further conversion to mRNA and viral gene expression becomes amplified in a process called secondary transcription. For viral proteins to be detectable in cell culture, this amplification must first take place, making the expression of GFP a direct indicator of whether secondary transcription has successfully occurred. […] As shown in the representative data in Figure 4A, ~82% of DMSO-treated PIV5-GFP infected cells were positive for GFP expression. This was reduced to ~2% GFP-positive cells after treatment with 8o. […] These chalcones were therefore selected for further screening for cytotoxicity.
The GFP IC50 was defined as the concentration of chalcone required to inhibit the GFP expression (as measured via flow cytometry) by 50% when compared to DMSO-treated cells. […]

Where [1] appears, read: low MOI (0.1 in Figure 7), read at 96 hpi.

Turning to `COc1ccccc1/C=C/C(=O)c1ccccc1O` [Chalcone 8a], the “Inhibition of viral gene expression, LACV” value in the series with LACV (10 µM) is “did not inhibit viral gene expression”. Further, in the series with Hs27 cells, the “PI MTC” value is reported as over 15 µM. Further, in the series with PIV5-GFP (10 µM added at 0, 6 or 18 hpi, MOI 10, read at 42 hpi), the “GFP-positive cells regardless of time of addition” value is ~ 80%. For the same compound, the “Inhibition of GFP expression, pre-infection treatment only” value (shortened to “Inhibition of GFP expression”) in the series with PIV5-GFP (MOI 10, 24 hpi) is reported as “no significant inhibition of GFP expression”. Besides, the “Inhibition of viral gene expression, PIV5” value in the series with PIV5-GFP (10 µM, Hs27 cells) is on record as “did not inhibit viral gene expression”. Further, in the series on PIV5-GFP (2.5, 5, 7.5 or 10 µM before and after infection, MOI 10, 24 hpi), the “GFP-positive cells with increasing concentration” value is ~ 80%. The “Effect on number of GFP-positive cells, virus spread, all times of addition” value with PIV5-GFP (low MOI (0.1 in Figure 7), 10 µM added at 0, 24, 48 or 72 hpi, read at 96 hpi) was “modestly reduced”.
As to `COc1ccc(Br)cc1/C=C/C(=O)c1c(O)cccc1OC` [Chalcone 8f], in the series with Hs27 cells, the “PI+ cells” value is 52.60% and 40–60%; the “PI MTC” value was found to be 4.9 µM. In the series on PIV5-GFP (MOI 10, 24 hpi), the “Ability to reduce viral GFP expression (Figure 4B screen)” value (from here on “Ability to reduce viral GFP expression”) was “most notable performance”.
As for `COc1ccc(Br)cc1/C=C/C(=O)c1c(O)cccc1OCc1ccccc1` [Chalcone 8l], in the series with Hs27 cells, the “PI+ cells” value was 40–60% and 57.7%; the “PI MTC” value amounted to 7.0 µM. Moreover, in the series on PIV5-GFP (MOI 10, 24 hpi), the “Ability to reduce viral GFP expression” value was “most notable performance”.
Turning to `CCOc1ccc(Br)cc1/C=C/C(=O)c1c(O)cccc1OCc1ccccc1` [Chalcone 8o], in the series on LACV, the “Cells expressing LACV glycoprotein Gc” value is listed as “below 10%”. Also, in the series on Hs27 cells, the “PI+ cells” value is < 10% and 8.5%; the “PI MTC” value came to 10.5 µM. In the series on PIV5-GFP (MOI 10, read at 42 hpi), the “GFP-positive cells, chalcone added at 0 or 6 hpi” value was about 25% and the “Effect on number of GFP-positive cells, chalcone added at 18 hpi” value is given as “no significant effect”. In the series on PIV5-GFP (MOI 10, 24 hpi), the GFP-positive cells is ~ 2% and 2.10% and < 10%; the “Ability to reduce viral GFP expression” value is “most notable performance”; the “Inhibition of GFP expression” value is listed as “no significant inhibition of GFP expression”. In the series on PIV5-GFP (10 µM), the “% GFP relative to DMSO treated (10 µM)” value is listed as 14.6%. Further, in the series on PIV5-GFP (setting [1]), the “GFP-positive cells, virus spread, chalcone added at 0 and 24 hpi” value is “less than 10%”; the “Inhibition of virus spread, chalcone added at 48 and 72 hpi” value was “inhibition was not seen”.
In the case of `CCOc1ccc(Cl)cc1/C=C/C(=O)c1c(O)cccc1OCc1ccccc1` [Chalcone 8p], the “Cells expressing LACV glycoprotein Gc” value in the series on LACV is listed as “below 10%”. For the same compound, in the series with Hs27 cells, the “PI+ cells” value is reported as under 10% and the “PI MTC” value amounted to 8.4 µM. In the series with PIV5-GFP (MOI 10, read at 42 hpi), the “GFP-positive cells, chalcone added at 0 or 6 hpi” value is about 25% and the “Effect on number of GFP-positive cells, chalcone added at 18 hpi” value is reported as “no significant effect”. Moreover, in the series with PIV5-GFP (MOI 10, 24 hpi), the GFP-positive cells was under 10%; the “Ability to reduce viral GFP expression” value is listed as “most notable performance”; the “Inhibition of GFP expression” value is listed as “no significant inhibition of GFP expression”. Further, in the series with PIV5-GFP (setting [1]), the “GFP-positive cells, virus spread, chalcone added at 0 and 24 hpi” value is recorded as “less than 10%”; the “Inhibition of virus spread, chalcone added at 48 and 72 hpi” value is recorded as “inhibition was not seen”.
For `COc1ccc(Br)cc1/C=C/C(=O)c1c(O)cccc1OCCC(C)C` [Chalcone 8s, (2E)-3-(5-Bromo-2-Methoxy-Phenyl)-1-[2-Hydroxy-6-(3-Methyl-Butoxy)-Phenyl]-Propenone], in the series with Hs27 cells, the “PI+ cells” value is recorded as 40–60% and the “PI MTC” value is listed as 3.5 µM. Further, the “Ability to reduce viral GFP expression” value in the series on PIV5-GFP (MOI 10, 24 hpi) is “most notable performance”.
`CCOc1ccc(Br)cc1/C=C/C(=O)c1c(O)cccc1OCc1ccc(-c2ccccc2)cc1` [Chalcone 8v, (2E)-1-[2-(Biphenyl-4-Ylmethoxy)-6-Hydroxy-Phenyl]3-(5-Bromo-2-Ethoxy-Phenyl)-Propenone]: the “% GFP relative to DMSO treated (10 µM)” value in the series with PIV5-GFP (10 µM) came to 63.3%.
For `COc1ccc(Br)cc1/C=C/C(=O)c1c(O)cccc1OCc1ccc(-c2ccccc2)cc1` [Chalcone 8w, (2E)-1-[2-(Biphenyl-4-Ylmethoxy)-6-Hydroxy-Phenyl]3-(5-Bromo-2-Methoxy-Phenyl)-Propenone], in the series with Hs27 cells, the “PI+ cells” value is given as ~ 11% and the “PI MTC” value amounted to 4.5 µM. Besides, the “Ability to reduce viral GFP expression” value in the series on PIV5-GFP (MOI 10, 24 hpi) is reported as “most notable performance”.
`COc1ccc(O)cc1/C=C/C(=O)c1c(O)cccc1OCc1ccccc1` [Chalcone 8x, (2E)-1-(2-Benzloxy-6-Hydroxy-Phenyl)-5-(5-Hydroxy-2-Methoxy-Phenyl)-Propenone]: the “PI+ cells” value in the series with Hs27 cells is given as 40–60%. Moreover, in the series on PIV5-GFP (MOI 10, 24 hpi), the “Ability to reduce viral GFP expression” value was “most notable performance”.
`COc1cc(/C=C/C(=O)c2c(O)cccc2OCc2ccccc2)cc(OC)c1OC` [Chalcone 8z, (2E)-1-(2-Benzloxy-6-Hydroxy-Phenyl)-3-(3,4,5-Trimethoxy-Phenyl)-Propenone]: in the series on Hs27 cells, the “PI+ cells” value is listed as 40–60% and the “PI MTC” value was 2.4 µM. Besides, the “Ability to reduce viral GFP expression” value with PIV5-GFP (MOI 10, 24 hpi) is on record as “most notable performance”.
